The record followed here is patent publication US8158792B2, “Spiropiperidines for use as tryptase inhibitors” (Janssen Pharmaceutica N.V., priority 2007, dated 2012).

The test addresses human lung tryptase. Nature of the test: β-Tryptase In-Vitro Enzyme Assay. It counts as biochemical. The settings on record: human lung tryptase 1 nM, substrate H-D-HHT-Ala-Arg-pNa 500 μM, pH 7.4, room temperature. Here is the method: The β-tryptase assay was conducted with human lung tryptase (Cortex Biochem #CP3033) in an aqueous buffer (10 mM Tris, 10 mM Hepes, 150 mM NaCl, 0.1% PEG 8000, pH 7.4) using the chromogenic substrate H-D-HHT-Ala-Arg-pNa. […] Percent inhibition was calculated by comparing the initial reaction velocity of samples without inhibitor to those with inhibitor. The initial reaction velocities were analyzed using Microsoft Excel.

Take `NCc1ccc2c(c1)C1(CCN(C(=O)c3sc4cc(Br)ccc4c3Cl)CC1)CO2` [Cpd 230, 1-(3-chloro-6-bromo-benzo[b]thien-2-yl)carbonyl-5′-aminomethyl-spiro[piperidine-4,3′-(2H)-benzo[b]furan]]: the IC50 (commonly the concentration needed to halve the response being measured) came to 140 nM. This lies in the sub-micromolar range.
To `CCC(C)Sc1sc(C(=O)N2CCC3(CC2)COc2ccc(CN)cc23)c2c1C(=O)CC(C)(C)C2` (stereo not drawn) [Cpd 231, 1-(3-sec-butylthio-4-oxo-6,6-dimethyl-6,7-dihydro-5H-benzo[c]thien-1-yl)carbonyl-5′-aminomethyl-spiro[piperidine-4,3′-(2H)-benzo[b]furan]] belongs 91 nM; to `CC1(C)CC(=O)c2c(SCc3ccccc3)sc(C(=O)N3CCC4(CC3)COc3ccc(CN)cc34)c2C1` [Cpd 232, 1-(3-benzylthio-4-oxo-6,6-dimethyl-6,7-dihydro-5H-benzo[c]thien-1-yl)carbonyl-5′-aminomethyl-spiro[piperidine-4,3′-(2H)-benzo[b]furan]], 15 nM.
For the molecule `NCc1ccc2c(c1)C1(CCN(C(=O)c3cc4ccsc4s3)CC1)CO2` [Cpd 233, 1-thieno[2,3-b]thien-2-ylcarbonyl-5′-aminomethyl-spiro[piperidine-4,3′-(2H)-benzo[b]furan]], 82 nM corresponded to half-maximal inhibition (IC50).
`CSc1sc(C(=O)N2CCC3(CC2)COc2ccc(CN)cc23)c2ccccc12` [Cpd 234, 1-(3-methylthio-benzo[c]thien-1-yl)carbonyl-5′-aminomethyl-spiro[piperidine-4,3′-(2H)-benzo[b]furan]] displayed an IC50 of 9.5 nM.
To `COc1cccc2c(C(=O)N3CCC4(CC3)COc3ccc(CN)cc34)sc(SC)c12` [Cpd 235, 1-(3-methylthio-4-methoxy-benzo[c]thien-1-yl)carbonyl-5′-aminomethyl-spiro[piperidine-4,3′-(2H)-benzo[b]furan]] belongs 9.2 nM.
Under `NCc1ccc2c(c1)C1(CCN(C(=O)c3c[nH]c4ccccc34)CC1)CO2` [Cpd 236, 1-indol-3-ylcarbonyl-5′-aminomethyl-spiro[piperidine-4,3′-(2H)-benzo[b]furan]] stands 750 nM.
To `Cn1cc(C(=O)N2CCC3(CC2)COc2ccc(CN)cc23)c2ccccc21` [Cpd 237, 1-(1-methyl-indol-3-yl)carbonyl-5′-aminomethyl-spiro[piperidine-4,3′-(2H)-benzo[b]furan]] belongs 270 nM; to `COc1ccc2[nH]cc(C(=O)N3CCC4(CC3)COc3ccc(CN)cc34)c2c1` [Cpd 238, 1-(5-methoxy-indol-3-yl)carbonyl-5′-aminomethyl-spiro[piperidine-4,3′-(2H)-benzo[b]furan]], 210 nM.
Turning to `NCc1ccc2c(c1)C1(CCN(C(=O)c3cn(Cc4ccccc4)c4ccccc34)CC1)CO2` [Cpd 239, 1-(1-benzyl-indol-3-yl)carbonyl-5′-aminomethyl-spiro[piperidine-4,3′-(2H)-benzo[b]furan]], the IC50 came out at 270 nM.
To `NCc1ccc2c(c1)C1(CCN(C(=O)c3sc(SCc4ccccc4)c4ccccc34)CC1)CO2` [Cpd 240, 1-(3-benzylthio-benzo[c]thien-1-yl)carbonyl-5′-aminomethyl-spiro[piperidine-4,3′-(2H)-benzo[b]furan]] belongs 1.8 nM; to `NCc1ccc2c(c1)C1(CCN(C(=O)c3sc(SCc4ccccc4)c4c3CCC=C4)CC1)CO2` [Cpd 241, 1-(3-benzylthio-7-hydro-6H-benzo[c]thien-1-yl)carbonyl-5′-aminomethyl-spiro[piperidine-4,3′-(2H)-benzo[b]furan]], 5.1 nM; to `NCc1ccc2c(c1)C1(CCN(C(=O)/C=C\c3ccco3)CC1)CO2` [Cpd 242, (Z)-1-(furan-2-ylethenyl)carbonyl-5′-aminomethyl-spiro[piperidine-4,3′-(2H)-benzo[b]furan]], 650 nM.
With `NCc1ccc2c(c1)C1(CCN(C(=O)/C=C\c3c[nH]cn3)CC1)CO2` [Cpd 243, (Z)-1-(imidazol-4-ylethenyl)carbonyl-5′-aminomethyl-spiro[piperidine-4,3′-(2H)-benzo[b]furan]], half-maximal inhibition (IC50) required 3100 nM.
Under `NCc1ccc2c(c1)C1(CCN(C(=O)/C=C/c3ccncc3)CC1)CO2` [Cpd 244, (E)-1-(pyridin-4-ylethenyl)carbonyl-5′-aminomethyl-spiro[piperidine-4,3′-(2H)-benzo[b]furan]] stands 2500 nM; under `NCc1ccc2c(c1)C1(CCN(C(=O)c3ccc(C=O)s3)CC1)CO2` [Cpd 245, 1-(5-formyl-thien-2-yl)carbonyl-5′-aminomethyl-spiro[piperidine-4,3′-(2H)-benzo[b]furan]], 510 nM; under `NCc1ccc2c(c1)C1(CCN(C(=O)c3cc4c(s3)CCC4)CC1)CO2` [Cpd 246, 1-(5,6-dihydro-4H-cyclopenta[b]thien-2-yl)carbonyl-5′-aminomethyl-spiro[piperidine-4,3′-(2H)-benzo[b]furan]], 200 nM.
To `CSc1ccc(C(=O)N2CCC3(CC2)COc2ccc(CN)cc23)s1` [Cpd 247, 1-(5-methylthio-thien-2-yl)carbonyl-5′-aminomethyl-spiro[piperidine-4,3′-(2H)-benzo[b]furan]] belongs 36 nM; to `N#C/C(=C\c1ccccc1)C(=O)N1CCC2(CC1)COc1ccc(CN)cc12` [Cpd 248, (E)-1-(1-cyano-2-phenylethenyl)carbonyl-5′-aminomethyl-spiro[piperidine-4,3′-(2H)-benzo[b]furan]], 330 nM.
Take `Cc1cccc2c(C(=O)N3CCC4(CC3)COc3ccc(CN)cc34)c[nH]c12` [Cpd 249, 1-(7-methyl-indol-3-yl)carbonyl-5′-aminomethyl-spiro[piperidine-4,3′-(2H)-benzo[b]furan]]: 830 nM corresponded to half-maximal inhibition (IC50).
Under `CCn1cc(C(=O)N2CCC3(CC2)COc2ccc(CN)cc23)c2cccc(C)c21` [Cpd 250, 1-(1-ethyl-7-methyl-indol-3-yl)carbonyl-5′-aminomethyl-spiro[piperidine-4,3′-(2H)-benzo[b]furan]] stands 440 nM; under `NCc1ccc2c(c1)C1(CCN(C(=O)/C=C/c3ccoc3)CC1)CO2` [Cpd 251, (E)-1-(furan-3-ylethenyl)carbonyl-5′-aminomethyl-spiro[piperidine-4,3′-(2H)-benzo[b]furan]], 1500 nM.
To `NCc1ccc2c(c1)C1(CCN(C(=O)/C=C/c3ccccn3)CC1)CO2` [Cpd 252, (E)-1-(pyridin-2-ylethenyl)carbonyl-5′-aminomethyl-spiro[piperidine-4,3′-(2H)-benzo[b]furan]] belongs 1600 nM.
Under `NCc1ccc2c(c1)C1(CCN(C(=O)/C=C/c3cccnc3)CC1)CO2` [Cpd 253, (E)-1-(pyridin-3-ylethenyl)carbonyl-5′-aminomethyl-spiro[piperidine-4,3′-(2H)-benzo[b]furan]] stands 2400 nM; under `NCc1ccc2c(c1)C1(CCN(C(=O)/C=C/c3cccs3)CC1)CO2` [Cpd 254, (E)-1-(thien-2-ylethenyl)carbonyl-5′-aminomethyl-spiro[piperidine-4,3′-(2H)-benzo[b]furan]], 370 nM.
`NCc1ccc2c(c1)C1(CCN(C(=O)/C=C/c3ccsc3)CC1)CO2` [Cpd 255, (E)-1-(thien-3-ylethenyl)carbonyl-5′-aminomethyl-spiro[piperidine-4,3′-(2H)-benzo[b]furan]] showed an IC50 of 580 nM. Compared with the last molecule, the IC50 is about 1.6-fold higher.
`Cc1cc(C(=O)N2CCC3(CC2)COc2ccc(CN)cc23)sc1C(O)O` [Cpd 256, 1-(5-dihydroxymethyl-4-methyl-thien-2-yl)carbonyl-5′-aminomethyl-spiro[piperidine-4,3′-(2H)-benzo[b]furan]] displayed an IC50 of 820 nM. This IC50 and that of the molecule before are within 1.5-fold of each other.
To `NCc1ccc2c(c1)C1(CCN(C(=O)c3cc4c(s3)CCCCC4)CC1)CO2` [Cpd 257, 1-(5,6,7,8-tetrahydro-4H-cyclohepta[b]thien-2-yl)carbonyl-5′-aminomethyl-spiro[piperidine-4,3′-(2H)-benzo[b]furan]] belongs 440 nM; to `CSc1sc(C(=O)N2CCC3(CC2)COc2ccc(CN)cc23)cc1C#N` [Cpd 258, 1-(4-cyano-5-methylthio-thien-2-yl)carbonyl-5′-aminomethyl-spiro[piperidine-4,3′-(2H)-benzo[b]furan]], 28 nM; to `Cc1cc(C(=O)N2CCC3(CC2)COc2ccc(CN)cc23)sc1Br` [Cpd 259, 1-(4-methyl-5-bromo-thien-2-yl)carbonyl-5′-aminomethyl-spiro[piperidine-4,3′-(2H)-benzo[b]furan]], 55 nM.
The molecule `CCOc1sc(C(=O)N2CCC3(CC2)COc2ccc(CN)cc23)c2c1C(=O)CCC2` [Cpd 261, 1-(3-ethoxy-4-oxo-5,6,7-trihydro-4H-benzo[c]thien-1-yl)carbonyl-5′-aminomethyl-spiro[piperidine-4,3′-(2H)-benzo[b]furan]] showed an IC50 of 73 nM.
To `NCc1ccc2c(c1)C1(CCN(C(=O)c3ccc(Cl)c(Cl)c3)C(=O)C1)CO2` (stereo not drawn) [Cpd 262, 1-(3,4-dichlorophenyl)carbonyl-2-oxo-5′-aminomethyl-spiro[piperidine-4,3′-(2H)-benzo[b]furan]] belongs 4500 nM; to `NCc1ccc2c(c1)C1(CCN(C(=O)NCc3ccccc3)CC1)CO2` [Cpd 263, 1-benzylaminocarbonyl-5′-aminomethyl-spiro[piperidine-4,3′-(2H)-benzo[b]furan]], 5100 nM.
The molecule `NCc1ccc2c(c1)C1(CCN(C(=O)C#Cc3ccc(O)cc3)CC1)CO2` [Cpd 264, 1-(4-hydroxy-phenylethynyl)carbonyl-5′-aminomethyl-spiro[piperidine-4,3′-(2H)-benzo[b]furan]] yielded an IC50 of 3200 nM.
To `NCc1ccc2c(c1)C1(CCN(C(=O)/C=C/c3cccc(O)c3)CC1)CO2` [Cpd 265, (E)-1-(3-hydroxy-phenylethenyl)carbonyl-5′-aminomethyl-spiro[piperidine-4,3′-(2H)-benzo[b]furan]] belongs 870 nM; to `CC(C)(C)c1ccc(C(=O)N2CCC3(CC2)COc2ccc(CN)cc23)s1` [Cpd 266, 1-(5-tert-butyl-thien-2-yl)carbonyl-5′-aminomethyl-spiro[piperidine-4,3′-(2H)-benzo[b]furan]], 200 nM.
